Measurements published in patent publication US8779157B2, “MGLUR4 allosteric potentiators, compositions, and methods of treating neurological dysfunction” (Vanderbilt University, priority 2009, dated 2014).

Each compound was assayed against mGluR4 (UniProt Q14833) (assay: mGluR4 potentiation assay (fluorescence, Ca2+ or thallium/GIRK readout; EC20 agonist)). Settings: half maximal effective concentration for mGluR4 potentiation; species of receptor not given.
Type: cell-based, human / rat
Protocol: The disclosed compounds and compositions can be evaluated for their ability to act as a potentiator of metabotropic glutamate receptor activity, in particular mGluR4 activity, by any suitable known methodology known in the art. For example, Chinese Hamster Ovary (CHO) cells transfected with human mGluR4 or HEK cells co-transfected with rat mGluR4 and the G-protein regulated Inwardly Rectifying Potassium channel (GIRK) were plated in clear bottom assay plates for assay in a Hamamatsu FDSS Fluorometric Plate Reader. The cells were loaded with either a Ca2+-sensitive fluorescent dye or the thallium responsive dye and the plates were washed and placed into a suitable kinetic plate reader. For human mGluR4 assays, a fluorescence baseline was established for 3-5 seconds, the disclosed compounds were then added to the cells, and the response in cells was measured. Approximately two and a half minutes later, a concentration of mGluR4 orthosteric agonist (e.g. glutamate or L-AP4) eliciting approximately 20% (EC20) of the maximal agonist response was added to the cells, and the response was measured. Two minutes later, a concentration of mGluR4 agonist (e.g. glutamate or L-AP4) eliciting 80% (EC80) of the maximal agonist response was added to the cells, and the response was measured. For rat mGluR4/GIRK experiments, a baseline was established for approximately five seconds, disclosed compounds were added, and either an EC20 or EC80 concentration of agonist was added approximately two and one half minutes later. Potentiation of the agonist response of mGluR4 by the disclosed compounds was observed as an increase in response to the EC20 concentration of agonist in the presence of compound compared to the response to agonist in the absence of compound. Similarly, antagonism of the agonist response of mGluR4 by the disclosed compounds was observed as a decrease in response to the EC80 concentration of agonist in the presence of compound compared to the response to agonist in the absence of compound.
The above described assay operated in two modes. In the first mode, a range of concentrations of the disclosed compounds are added to cells, followed by a single fixed concentration of agonist. If the compound acts as a potentiatior, an EC50 value for potentiation and a maximum extent of potentiation by the compound at this concentration of agonist is determined by non-linear curve fitting. If the compound acts as a noncompetitive antagonist, an IC50 value is determined by non-linear curve fitting. In the second mode, several fixed concentrations of the disclosed compounds are added to various wells on a plate, followed by a range in concentrations of agonist for each concentration of disclosed compound. The EC50 values for the agonist at each concentration of compound are determined by non-linear curve fitting. A decrease in the EC50 value of the agonist with increasing concentrations of the sample compound (a leftward shift of the agonist concentration-response curve) is an indication of the degree of mGluR4 potentiation at a given concentration of the sample compound. A decrease in the maximal response of the agonist with increasing concentrations of the sample compounds, with or without a rightward shift in agonist potency, is an indication of the degree of noncompetitive antagonism at mGluR4. The second mode also indicates whether the sample compounds also affect the maximum response to mGluR4 to agonists.

SMILES	EC50
C[C@@]1(Cc2ccccc2)NC(=O)N(c2ccc(NC(=O)c3ccccn3)cc2Cl)C1=O [Example 1.3.20, (S)-N-(4-(4-benzyl-4-methyl-2,5-dioxoimidazolidin-1-yl)-3-chlorophenyl)picolinamide]	0.604 µM
O=C(Nc1ccc(N2C(=O)C3CN(C(=O)c4ccco4)CCN3C2=O)c(Cl)c1)c1ccccn1 (stereo not drawn) [Example 1.3.74, N-(3-chloro-4-(7-(furan-2-carbonyl)-1,3-dioxohexahydroimidazo[1,5-a]pyrazin-2(3H)-yl)phenyl)picolinamide]	0.967 µM
O=C(Nc1ccc(N2C(=O)C3COCCN3C2=O)c(Cl)c1)c1cccs1 (stereo not drawn) [Example 1.3.24, N-(3-Chloro-4-(1,3-dioxodihydro-1H-imidazo[5,1-c][1,4]oxazin-2(3H,8H,8aH)-yl)phenyl)thiophene-2-carboxamide]	9.5 µM
COc1cccc(C(=O)Nc2ccc(N3C(=O)N[C@@](C)(Cc4ccccc4)C3=O)c(Cl)c2)n1 [Example 1.3.68, (S)-N-(4-(4-benzyl-4-methyl-2,5-dioxoimidazolidin-1-yl)-3-chlorophenyl)-6-methoxypicolinamide]	5.88 µM
CC(C)C[C@]1(C)NC(=O)N(c2ccc(NC(=O)c3ccccn3)cc2Cl)C1=O [Example 1.3.16, (S)-N-(3-chloro-4-(4-isobutyl-4-methyl-2,5-dioxoimidazolidin-1-yl)phenyl)picolinamide]	3.59 µM
O=C(Nc1ccc(N2C(=O)C3COCCN3C2=S)c(Cl)c1)c1cnccn1 (stereo not drawn) [Example 1.3.31, N-(3-Chloro-4-(1-oxo-3-thioxodihydro-1H-imidazo[5,1-c][1,4]oxazin-2(3H,8H,8aH)-yl)phenyl)pyrazine-2-carboxamide]	3.56 µM
CC(C)(C)[C@@H]1NC(=O)N(c2ccc(NC(=O)c3ccccn3)cc2Cl)C1=O [Example 1.3.57, (S)-N-(4-(4-(tert-butyl)-2,5-dioxoimidazolidin-1-yl)-3-chlorophenyl)picolinamide]	0.2 µM
CC(C)(C)C(=O)N1CCN2C(=O)N(c3ccc(NC(=O)c4ccccn4)cc3Cl)C(=O)C2C1 (stereo not drawn) [Example 1.3.73, N-(3-chloro-4-(1,3-dioxo-7-pivaloylhexahydroimidazo[1,5-a]pyrazin-2(3H)-yl)phenyl)picolinamide]	1.07 µM
O=C(Nc1ccc(N2C(=O)C3CCCCN3C2=S)c(Cl)c1)c1ncc(F)cc1F (stereo not drawn) [Example 1.3.81, N-(3-chloro-4-(1-oxo-3-thioxohexahydroimidazo[1,5-a]pyridin-2(3H)-yl)phenyl)-3,5-difluoropicolinamide]	0.876 µM
O=C(Nc1ccc(N2C(=O)C3CCCCN3C2=O)cc1)c1ccccn1 (stereo not drawn) [Example 1.3.3, N-(4-(1,3-dioxotetrahydroimidazo[1,5-a]pyridin-2(1H,3H,5H)-yl)phenyl)picolinamide]	3.12 µM
O=C(Nc1ccc(N2C(=O)C3COCCN3C2=O)c(Cl)c1)c1ncccc1F (stereo not drawn) [Example 1.3.22, N-(3-Chloro-4-(1,3-dioxodihydro-1H-imidazo[5,1-c][1,4]oxazin-2(3H,8H,8aH)-yl)phenyl)-3-fluoropicolinamide]	5.82 µM
O=C(Nc1ccc(N2C(=O)C3COCCN3C2=S)c(Cl)c1)c1cscn1 (stereo not drawn) [Example 1.3.35, N-(3-Chloro-4-(1-oxo-3-thioxodihydro-1H-imidazo[5,1-c][1,4]oxazin-2(3H,8H,8aH)-yl)phenyl)thiazole-4-carboxamide]	1.49 µM
CN1C(=O)N(c2ccc(NC(=O)c3ccccn3)cc2Cl)C(=O)[C@]1(C)Cc1ccccc1 [Example 1.3.64, (S)-N-(4-(4-benzyl-3,4-dimethyl-2,5-dioxoimidazolidin-1-yl)-3-chlorophenyl)picolinamide]	0.197 µM

Now from value to compound:

EC50	SMILES
6.73 µM	O=C(Nc1ccc(N2C(=O)C3COCCN3C2=O)c(Cl)c1)c1cccc(F)n1 (stereo not drawn) [Example 1.3.29, N-(3-Chloro-4-(1,3-dioxodihydro-1H-imidazo[5,1-c][1,4]oxazin-2(3H,8H,8aH)-yl)phenyl)-6-fluoropicolinamide]
5.05 µM	O=C(Nc1ccc(N2C(=O)C3COCCN3C2=S)c(Cl)c1)c1ccc(Cl)o1 (stereo not drawn) [Example 1.3.37, 5-Chloro-N-(3-chloro-4-(1-oxo-3-thioxodihydro-1H-imidazo[5,1-c][1,4]oxazin-2(3H, 8H,8aH)-yl)phenyl)-furan-2-carboxamide]
1.2 µM	O=C(Nc1ccc(N2C(=O)C3COCCN3C2=S)c(Cl)c1)c1ncccc1F (stereo not drawn) [Example 1.3.39, N-(3-Chloro-4-(1-oxo-3-thioxodihydro-1H-imidazo[5,1-c][1,4]oxazin-2(3H, 8H,8aH)-yl)phenyl)-3-fluoropicolinamide]
2.18 µM	O=C(Nc1ccc(N2C(=O)C3COCCN3C2=O)c(Cl)c1)c1ccccn1 (stereo not drawn) [Example 1.3.21, N-(3-Chloro-4-(1,3-dioxodihydro-1H-imidazo[5,1-c][1,4]oxazin-2(3H,8H,8aH)-yl)phenyl)picolinamide]
4.21 µM	CC1(C)NC(=O)N(c2ccc(NC(=O)c3ccccn3)cc2Cl)C1=O [Example 1.3.18, N-(3-chloro-4-(4,4-dimethyl-2,5-dioxoimidazolidin-1-yl)phenyl)picolinamide]
1.67 µM	O=C(Nc1ccc(N2C(=O)C3CCCCN3C2=O)c(Cl)c1)c1cccc(F)n1 (stereo not drawn) [Example 1.3.4, N-(3-Chloro-4-(1,3-dioxotetrahydroimidazo[1,5-a]pyridin-2(1H,3H,5H)-yl)phenyl)-6-fluoropicolinamide]
2.58 µM	O=C(Nc1ccc(N2C(=O)C3CCCCN3C2=O)c(Cl)c1)c1ccncn1 (stereo not drawn) [Example 1.3.6, N-(3-Chloro-4-(1,3-dioxotetrahydroimidazo[1,5-a]pyridin-2(1H,3H,5H)-yl)phenyl)pyrimidine-4-carboxamide]
0.814 µM	O=C(Nc1ccc(N2C(=O)C3CCCCN3C2=O)c(Cl)c1)c1ccccn1 (stereo not drawn) [Example 1.3.2, N-(3-chloro-4-(1,3-dioxotetrahydroimidazo[1,5-a]pyridin-2(1H,3H,5H)-yl)phenyl)picolinamide]
4.83 µM	O=C(Nc1ccc(N2C(=O)C3COCCN3C2=O)c(Cl)c1)c1cccc(Cl)n1 (stereo not drawn) [Example 1.3.23, 6-Chloro-N-(3-chloro-4-(1,3-dioxodihydro-1H-imidazo[5,1-c][1,4]oxazin-2(3H,8H,8aH)-yl)phenyl)picolinamide]
7.06 µM	CN1CC(=O)N(c2ccc(NC(=O)c3ccccn3)cc2Cl)C1=O [Example 1.3.11, N-(3-chloro-4-(3-methyl-2,5-dioxoimidazolin-1-yl)phenyl)picolinamide]
0.325 µM	CN1C(=O)N(c2ccc(NC(=O)c3ccccn3)cc2Cl)C(=O)C12CC1CCC2C1 (stereo not drawn) [Example 1.3.54, N-(3-chloro-4-(3′-methyl-2′,5′-dioxospiro[bicyclo[2.2.1]heptane-2,4′-imidazolidin]-1′-yl)phenyl)picolinamide]
1.79 µM	O=C(Nc1ccc(N2C(=O)C3CCCCN3C2=S)c(Cl)c1)c1ccsc1 (stereo not drawn) [Example 1.3.78, N-(3-chloro-4-(1-oxo-3-thioxohexahydroimidazo[1,5-a]pyridin-2(3H)-yl)phenyl)thiophene-3-carboxamide]
1.5 µM	CC(C)[C@]1(C)NC(=O)N(c2ccc(NC(=O)c3ccccn3)cc2Cl)C1=O [Example 1.3.59, (S)-N-(3-chloro-4-(4-isopropyl-4-methyl-2,5-dioxoimidazolidin-1-yl)phenyl)picolinamide]
2.4 µM	CC12CCCCN1C(=S)N(c1ccc(NC(=O)c3cccc(Cl)n3)cc1Cl)C2=O (stereo not drawn) [Example 1.3.93, 6-chloro-N-(3-chloro-4-(8a-methyl-1-oxo-3-thioxohexahydroimidazo[1,5-a]pyridin-2(3H)-yl)phenyl)picolinamide]
0.434 µM	CC12CCCCN1C(=O)N(c1ccc(NC(=O)c3ccccn3)cc1Cl)C2=O (stereo not drawn) [Example 1.3.48, N-(3-chloro-4-(8a-methyl-1,3-dioxohexahydroimidazo[1,5-a]pyridin-2(3H)-yl)phenyl)picolinamide]
0.795 µM	O=C(Nc1ccc(N2C(=O)NC3(CCCC3)C2=O)c(Cl)c1)c1ccccn1 [Example 1.3.13, N-(3-chloro-4-(2,4-dioxo-1,3-diazaspiro[4.4]nonan-3-yl)phenyl)picolinamide]
3.59 µM	CC(C)[C@@]1(C)NC(=O)N(c2ccc(NC(=O)c3ccccn3)cc2Cl)C1=O [Example 1.3.60, (R)-N-(3-chloro-4-(4-isopropyl-4-methyl-2,5-dioxoimidazolidin-1-yl)phenyl)picolinamide]
